Measurements as given in patent publication US8445636B2, “Antimicrobial and anticancer lipopeptides” (Yeda Research & Development Co. Ltd., priority 2003, dated 2013).
In brackets after ≈: the same amount, converted by molar mass. Like-named read-outs stand apart in the source and are kept apart here. Non-standard residues stand in square brackets, D forms with d. Residues, ends and D or L forms follow the SMILES beside them. *: point of attachment. Lauroyl = CCCCCCCCCCCC(=O)*

What was measured:
[1] = system: Pseudomonas aeruginosa ATCC 27853; assay type: cell-based
Procedure, shortened: (§1)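 MIC = lowest concentration with 100% growth inhibition, judged from A600 after 18-20 h incubation at 37° C. Bacteria at 1×10^6 CFU/ml in LB (pH 7.4 unless pH 5.5 stated) combined with equal volume of serially 2-fold diluted lipopeptide.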

[2] = system: Staphylococcus aureus ATCC 6538P; assay type: cell-based
Procedure, shortened: as §1

[3] = system: Acinetobacter baumannii ATCC 19606; assay type: cell-based
Procedure, shortened: as §1

[4] = system: Escherichia coli ATCC 25922; assay type: cell-based
Procedure, shortened: as §1

[5] = system: Cryptococcus neoformans ATCC 66031; assay: microbe, parasite or virus in culture; assay type: cell-based
Procedure, shortened: (§2)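 In this assay, each strain, prepared at 1×10^4 CFU/ml before mixing, met serial twofold peptide dilutions in RPMI 1640 buffered with 0.165 M MOPS. Unless noted, pH was 7.4; a pH 5.5 condition was also run. After 24-48 h incubation (35 °C, agitated), wells were scored at 620 nm for total inhibition.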

[6] = system: Candida albicans ATCC 10231; assay: microbe, parasite or virus in culture; assay type: cell-based
Procedure, shortened: as §2

E. coli D21 = assay type: cell-based
[7] = system: Prostate cancer cell line CL1; assay: Cytotoxicity, XTT viability; assay type: cell-based, human; settings: 24 h incubation, read-out: LC50, Prostate cancer CL1
Method: (§3) Prostate cancer cell lines (CL1 and 22RV1; ATCC, USA) were grown in RPMI-1640 supplemented with 10% FCS (Biological Industries, Beit Haemek, Israel). N1H-3T3 mouse fibroblast cell line (ATCC, USA) was grown in DMEM supplemented with 10% bovine serum. To test cytotoxicity against the cancer cells, aliquots of medium containing 1×10^4 cells were distributed into a 96-well plate (Falcon). After one day, the media were replaced with 90 μl of fresh media and 10 μl of a solution containing different concentrations of the peptides. The plate was then incubated for 24 h before adding to each well 50 μl of XTT reaction solution (Biological Industries, Beit Haemek, Israel); viability was determined as previously described (Papo et al., (2003) J. Biol. Chem. 278:21018-23). The LC50 (concentration at which 50% of the cells die) for each peptide was obtained from the dose-dependent cell viability curves.

[8] = system: Prostate cancer cell line 22RV1; assay: Cytotoxicity, XTT viability; assay type: cell-based, human; settings: 24 h incubation, read-out: LC50, Prostate cancer 22RV1
Method: as §3

[9] = Cytotoxicity, XTT viability, non-cancer cells; assay type: cell-based; settings: mouse, non-cancer cell line, 24 h incubation, read-out: LC50, 3T3
Procedure, shortened: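 Cells (CL1, 22RV1 in RPMI-1640/10% FCS; NIH-3T3 fibroblasts in DMEM/10% bovine serum) seeded at 1×10^4/well, next day exposed to graded peptide concentrations for 24 h. Viability read by XTT; LC50 (50% cell death) taken from dose-dependent viability curves.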

[10] = system: Aspergillus fumigatus ATCC 26430; assay: microbe, parasite or virus in culture; assay type: cell-based

CCCCCCCCCCCC(=O)N[C@H](CC(C)C)C(=O)N[C@@H](CCCNC(=N)N)C(=O)N[C@@H](CCCNC(=N)N)C(=O)N[C@H](CC(C)C)C(=O)N[C@H](CC(C)C)C(=O)N[C@@H](CCCNC(=N)N)C(=O)N[C@@H](CCCNC(=N)N)C(=O)N[C@H](CC(C)C)C(=O)N[C@H](CC(C)C)C(=O)N[C@@H](CCCNC(=N)N)C(=O)N[C@@H](CCCNC(=N)N)C(=O)N[C@H](CC(C)C)C(N)=O [lipopeptide 25, (CH3-(CH2)10-CO-)-D-Leu-Arg-Arg-D-Leu-D-Leu-Arg-Arg-D-Leu-D-Leu-Arg-Arg-D-Leu-NH2] (Lauroyl-[dL]RR[dL][dL]RR[dL][dL]RR[dL]-NH2)
Minimal inhibitory concentrations, P. Aeruginosa ATCC 27853 ([1]; ATCC 27853, pH 5.5): 50 µM (≈ 90.8 µg/mL) | Minimal inhibitory concentrations, P. Aeruginosa ATCC 27853 ([1]; ATCC 27853, pH 7.4): 50 µM (≈ 90.8 µg/mL) | Minimal inhibitory concentrations, S. aureus II ATCC 6538P ([2]; ATCC 6538, pH 5.5): 50 µM (≈ 90.8 µg/mL) | Minimal inhibitory concentrations, S. aureus II ATCC 6538P ([2]; ATCC 6538, pH 7.4): 12.5 µM (≈ 22.7 µg/mL) | Minimal inhibitory concentrations, A. baumannii ATCC 19606 ([3]; ATCC 19606, pH 5.5): 75 µM (≈ 136 µg/mL) | Minimal inhibitory concentrations, A. baumannii ATCC 19606 ([3]; ATCC 19606, pH 7.4): >100 µM | Minimal inhibitory concentrations, E. Coli ATCC 25922 ([4]; ATCC 25922, pH 5.5): 100 µM (≈ 182 µg/mL) | Minimal inhibitory concentrations, E. Coli ATCC 25922 ([4]; ATCC 25922, pH 7.4): >100 µM | MIC ([5]; ATCC 66031, pH 5.5, read-out: Minimal inhibitory concentrations, C. Neofor. With serum): 2.34 µM (≈ 4.25 µg/mL) | MIC ([5]; ATCC 66031, pH 5.5, read-out: Minimal inhibitory concentrations, C. Neofor. Without serum): <0.78 µM | MIC ([5]; ATCC 66031, pH 7.4, read-out: Minimal inhibitory concentrations, C. Neofor. With serum): <0.78 µM | MIC ([5]; ATCC 66031, pH 7.4, read-out: Minimal inhibitory concentrations, C. Neofor. Without serum): <0.78 µM | MIC ([6]; ATCC 10231, pH 5.5, read-out: Minimal inhibitory concentrations, C. Albicans With serum): 100 µM (≈ 182 µg/mL) | MIC ([6]; ATCC 10231, pH 5.5, read-out: Minimal inhibitory concentrations, C. Albicans Without serum): 12.5 µM (≈ 22.7 µg/mL) | MIC ([6]; ATCC 10231, pH 7.4, read-out: Minimal inhibitory concentrations, C. Albicans With serum): 100 µM (≈ 182 µg/mL) | MIC ([6]; ATCC 10231, pH 7.4, read-out: Minimal inhibitory concentrations, C. Albicans Without serum): 3.125 µM (≈ 5.67 µg/mL) | Minimal inhibitory concentrations, E. Coli D21 (E. coli D21; D21, pH 5.5): 50 µM (≈ 90.8 µg/mL) | Minimal inhibitory concentrations, E. Coli D21 (E. coli D21; D21, pH 7.4): 50 µM (≈ 90.8 µg/mL) | CC50 [7]: 3.12 µM | CC50 [8]: 3.12 µM | CC50 at 24 h [9]: 100 µM | MIC ([10]; ATCC 26430, pH 5.5, read-out: Minimal inhibitory concentrations, A. Fumig. With serum): 50 µM (≈ 90.8 µg/mL) | MIC ([10]; ATCC 26430, pH 5.5, read-out: Minimal inhibitory concentrations, A. Fumig. Without serum): 6.25 µM (≈ 11.3 µg/mL) | MIC ([10]; ATCC 26430, pH 7.4, read-out: Minimal inhibitory concentrations, A. Fumig. With serum): 50 µM (≈ 90.8 µg/mL) | MIC ([10]; ATCC 26430, pH 7.4, read-out: Minimal inhibitory concentrations, A. Fumig. Without serum): 3.125 µM (≈ 5.67 µg/mL)
